Laboratory results published in US9420782B2, “Pesticidal composition in the form of aqueous emulsion” (Sumitomo Chemical Company, Limited, priority 2012, dated 2016).

Assay: Retention rate of the agriculturally active ingredient after xenon light irradiation (film on glass petri dish)
Type: physicochemical
Conditions: xenon light (290 nm cutoff), 0.68 W/m^2 at 340 nm, 35° C., neat active ingredient air-dried on petri dish
Procedure: A method for the calculation of a retention rate of the agriculturally active ingredient defined above is more specifically as follows. First, 250 mg of the agriculturally active ingredient is dissolved in 50 mL of a solvent such as acetone, which can sufficiently dissolve the agriculturally active ingredient and also has high volatility, and 1 mL of the solution is added to a glass petri dish having a diameter of 6 cm using a one-mark pipette, spread entirely over the petri dish, and then air-dried at room temperature. The petri dish is covered with a lid made of quartz glass and then set in a weathering tester (manufactured by Q-Lab Corporation under the trade name of Q-SUN Xenon Accelerated Weathering Tester, Model Xe-3) equipped with a borosilicate filter (manufactured by Q-Lab Corporation under the trade name of Daylight-BB Optical Filter) attached thereto. After irradiation with xenon light under the conditions of an intensity at 340 nm of 0.68 W/m^2 and a temperature of 35° C. (35° C. as measured by an insulated black panel thermometer) for a predetermined time, the amount of the agriculturally active ingredient remaining on the petri dish is determined by a known determination method such as high-performance liquid chromatography. […]

Structure (SMILES): CNC(=O)C(OC)c1ccccc1COc1cc(C)ccc1C (stereo not drawn) [compound A, 2-[(2,5-dimethylphenoxy)methyl]-α-methoxy-N-methyl-benzeneacetamide]
- retention rate after irradiation with xenon light (8 hours): 93.1%
- retention rate after irradiation with xenon light (56 hours): 50.3%
